In brackets after ≈: the same amount, converted by molar mass. Where two headings read alike, the source gives them in different places. Ends that are not written are not given here.
Legend:
[1] = system: MDR E. coli B2 (mcr-1 + blaNDM-5); assay: microbe, parasite or virus in culture; format: cell-based
Procedure: (§1) Experiments were performed with two biological replicates.

RBCs = conditions: cited from earlier work
[2] = ref [19]; cited from earlier work
Excerpt: Antimicrobial peptides (AMPs), also named host defense peptides, are originated from various organisms and are important immune modulation molecules that protect the host from the invading pathogens. […] However, the high cost of peptides, the lability to proteases, less bioavailable and nonspecific toxicity still hinder these AMPs in clinical practice. A more rational design of AMPs contributes to improving their stability and antibacterial activity. ...

E. coli ATCC 25922 = assay: microbe, parasite or virus in culture; format: cell-based
Procedure: as §1

[3] = system: S. aureus 215 (cfr + LZD^R); assay: microbe, parasite or virus in culture; format: cell-based; conditions: 18 h
Procedure: as §1

S. aureus ATCC 29213 = assay: microbe, parasite or virus in culture; format: cell-based
Procedure: as §1

[4] = system: S. enteritidis ATCC 13076; assay: microbe, parasite or virus in culture; format: cell-based
Procedure: as §1

MRSA T144 = assay: MIC/MBC, broth micro-dilution; format: cell-based, Staphylococcus aureus
Procedure: as §1

E. coli 1F28 (tet(X4)) = assay: MIC/MBC, broth micro-dilution; format: cell-based
Procedure: as §1

E. coli B3-1 (tet(X4)) = assay: MIC/MBC, broth micro-dilution; format: cell-based
Procedure: as §1

E. faecalis A4 (VRE) = assay: MIC/MBC, broth micro-dilution; format: cell-based
Procedure: as §1

E. coli 1A34 = assay: MIC, tigecycline-resistant clinical isolate; format: cell-based
Procedure: as §1

E. coli 1C1 = assay: MIC, tigecycline-resistant clinical isolate; format: cell-based
Procedure: as §1

E. coli 1F16 = assay: MIC, tigecycline-resistant clinical isolate; format: cell-based
Procedure: as §1

E. coli 1F31 = assay: MIC, tigecycline-resistant clinical isolate; format: cell-based
Procedure: as §1

E. coli 1N28 = assay: MIC, tigecycline-resistant clinical isolate; format: cell-based
Procedure: as §1

E. coli 1N31 = assay: MIC, tigecycline-resistant clinical isolate; format: cell-based
Procedure: as §1

E. coli 2A19 = assay: MIC, tigecycline-resistant clinical isolate; format: cell-based
Procedure: as §1

E. coli 2W25 = assay: MIC, tigecycline-resistant clinical isolate; format: cell-based
Procedure: as §1

Shigella 1F25 = assay: MIC, tigecycline-resistant clinical isolate; format: cell-based; conditions: Shigella 1F25, feces, broth micro-dilution
Procedure: as §1

[5] = Hydrophobicity by RP-HPLC (percent acetonitrile at elution); format: physicochemical; conditions: acetonitrile in water, 0.1% (v/v) TFA, higher percent = higher hydrophobicity
Procedure: All peptides used in this study were synthesized by GL Biochem (Shanghai, China) using a solid phase peptide synthesis (SPPS) method, and their accurate molecular weights were determined by matrix-assisted laser desorption/ionization time-of-flight mass spectrometry (MALDI-TOF MS). The peptide purity (>95%) and retention time were determined by reversed-phase high-performance liquid chromatography (HPLC).
A collection of tryptophan-rich linear peptides on the basis of MP196 (RWRWRW-NH2) was designed by increasing peptide length or positive charge or hydrophobicity, replacing amino acids and/or N-terminal acetylation (Table 1). These peptides were synthesized via solid-phase peptide synthesis (SPPS), purified by reverse-phase high-performance liquid chromatography (RP-HPLC) (Figure S1) and validated by matrix-assisted laser desorption/ionization time-of-flight mass spectrometry (MALDI-TOF MS) (Figure S2). […] All engineered peptides belong to cationic AMPs, with 3 or 6 net charges. The percentage of acetonitrile at RP-HPLC elution was regarded as a relative measure of peptides’ hydrophobicity. […] The hydrophobicity order was listed as follows: WRK-12 > WL-9 > WR-6 > WV-9 > KW-6 > WKK-12 > WR-12 > MP196 > WK-6.

[6] = MDR B2 (mcr-1 + blaNDM-5, 18 h)
[7] = S. aureus 215 (cfr + LZD^R), broth micro-dilution CLSI 2018, MHB, 37 °C
[8] = Escherichia coli, ATCC25922, 18 h
[9] = Staphylococcus aureus, ATCC29213, 18 h
[10] = Enterococcus faecalis, VRE, 18 h
[11] = Escherichia coli, Table 2, E. coli B2 (mcr-1 + blaNDM-5), broth micro-dilution CLSI 2018, MHB, 18 h, 37 °C, read-out: MIC
[12] = Staphylococcus aureus, MRSA T144, broth micro-dilution CLSI 2018, MHB, 18 h, 37 °C, read-out: MIC
[13] = Escherichia coli, E. coli 1F28 (tet(X4)), broth micro-dilution CLSI 2018, MHB, 18 h, 37 °C, read-out: MIC
[14] = Escherichia coli, E. coli B3-1 (tet(X4)), broth micro-dilution CLSI 2018, MHB, 18 h, 37 °C, read-out: MIC

Compound: RWRWRW-NH2 [MP196]
- MIC [1, 6]: >64 µg/mL
- hemolysis to RBCs (RBCs): high hemolysis
- in vivo stability [2]: low in vivo stability

Compound: WKVWKVWKV-NH2 [WV-9]
- MIC [1, 6]: >64 µg/mL

Compound: colistin
- MIC (E. coli ATCC 25922; E. coli ATCC 25922, broth micro-dilution CLSI 2018, MHB, 18 h, 37 °C): 0.5 µg/mL
- MIC ([1]; Table 2, E. coli B2 (mcr-1 + blaNDM-5), broth micro-dilution CLSI 2018, MHB, 18 h, 37 °C): 8 µg/mL
- MIC [3, 7]: 64 µg/mL
- MIC (S. aureus ATCC 29213; S. aureus ATCC 29213, broth micro-dilution CLSI 2018, MHB, 18 h, 37 °C): 16 µg/mL
- MIC ([4]; S. enteritidis ATCC 13076, broth micro-dilution CLSI 2018, MHB, 18 h, 37 °C): 0.25 µg/mL
- MIC (MRSA T144; MRSA T144, broth micro-dilution CLSI 2018, MHB, 18 h, 37 °C): 128 µg/mL
- MIC (E. coli 1F28 (tet(X4)); E. coli 1F28 (tet(X4)), broth micro-dilution CLSI 2018, MHB, 18 h, 37 °C): 0.25 µg/mL
- MIC (E. coli B3-1 (tet(X4)); E. coli B3-1 (tet(X4)), broth micro-dilution CLSI 2018, MHB, 18 h, 37 °C): 0.25 µg/mL
- MIC (E. faecalis A4 (VRE); E. faecalis A4 (VRE), broth micro-dilution CLSI 2018, MHB, 18 h, 37 °C): 128 µg/mL

Compound: CN[C@H](CC(C)C)C(=O)N[C@H]1C(=O)N[C@@H](CC(N)=O)C(=O)N[C@H]2C(=O)N[C@H]3C(=O)N[C@H](C(=O)N[C@H](C(=O)O)c4cc(O)cc(O)c4-c4cc3ccc4O)[C@H](O)c3ccc(c(Cl)c3)Oc3cc2cc(c3O[C@@H]2O[C@H](CO)[C@@H](O)[C@H](O)[C@H]2O[C@H]2C[C@](C)(N)[C@H](O)[C@H](C)O2)Oc2ccc(cc2Cl)[C@H]1O [VAN, vancomycin]
- MIC (E. coli ATCC 25922; [8]): 128 µg/mL (≈ 88.3 µM)
- MIC ([1]; Escherichia coli, 18 h): 128 µg/mL (≈ 88.3 µM)
- MIC ([3]; Staphylococcus aureus): 1 µg/mL (≈ 0.69 µM)
- MIC (S. aureus ATCC 29213; [9]): 0.5 µg/mL (≈ 0.345 µM)
- MIC ([4]; Salmonella enterica, 18 h): 128 µg/mL (≈ 88.3 µM)
- MIC (MRSA T144; Staphylococcus aureus, MRSA, 18 h): 1 µg/mL (≈ 0.69 µM)
- MIC (E. coli 1F28 (tet(X4)); Escherichia coli, 18 h): 128 µg/mL (≈ 88.3 µM)
- MIC (E. coli B3-1 (tet(X4)); Escherichia coli, 18 h): 64 µg/mL (≈ 44.2 µM)
- MIC (E. faecalis A4 (VRE); [10]): > 128 µg/mL

Compound: WRWRWR-NH2 [WR-6]
- MIC [1, 6]: >64 µg/mL

Compound: Ac-WKVKWKVKWKVK-NH2 [WKK-12]
- MIC (E. coli ATCC 25922; ATCC 25922, 18 h): 128 µg/mL
- MIC [1, 6]: 64 µg/mL
- MIC [3, 7]: 64 µg/mL
- MIC (S. aureus ATCC 29213; ATCC 29213, 18 h): 128 µg/mL
- MIC ([4]; ATCC 13076, 18 h): 64 µg/mL
- MIC (MRSA T144; T144, 18 h): 64 µg/mL
- MIC (E. coli 1F28 (tet(X4)); 1F28 (tet(X4, 18 h))): 64 µg/mL
- MIC (E. coli B3-1 (tet(X4)); B3-1 (tet(X4, 18 h))): 64 µg/mL
- MIC (E. faecalis A4 (VRE); A4 (VRE, 18 h)): 64 µg/mL
- MIC (E. coli 1A34; 1A34, 4 h): 64 µg/mL
- MIC (E. coli 1C1; 1C1, 4 h): 64 µg/mL
- MIC (E. coli 1F16; 1F16, 4 h): 64 µg/mL
- MIC (E. coli 1F31; 1F31, 4 h): 64 µg/mL
- MIC (E. coli 1N28; 1N28, 4 h): 64 µg/mL
- MIC (E. coli 1N31; 1N31, 4 h): 64 µg/mL
- MIC (E. coli 2A19; 2A19, 4 h): 128 µg/mL
- MIC (E. coli 2W25; 2W25, 4 h): 64 µg/mL
- MIC (Shigella 1F25): 64 µg/mL
- H (hydrophobicity, percent of acetonitrile at HPLC elution) [5]: 31.424 percent acetonitrile

Compound: CC1(C)S[C@@H]2[C@H](NC(=O)[C@H](N)c3ccccc3)C(=O)N2[C@H]1C(=O)O [AMP, ampicillin]
- MIC (E. coli ATCC 25922; Escherichia coli, ATCC25922, E. coli ATCC 25922, broth micro-dilution CLSI 2018, MHB, 18 h, 37 °C, read-out: MIC): 8 µg/mL (≈ 22.9 µM)
- MIC [1, 11]: > 128 µg/mL
- MIC ([3]; Staphylococcus aureus): 64 µg/mL (≈ 183 µM)
- MIC (S. aureus ATCC 29213; Staphylococcus aureus, ATCC29213, S. aureus ATCC 29213, broth micro-dilution CLSI 2018, MHB, 18 h, 37 °C, read-out: MIC): 0.25 µg/mL (≈ 0.715 µM)
- MIC ([4]; Salmonella enterica, S. enteritidis ATCC 13076, broth micro-dilution CLSI 2018, MHB, 18 h, 37 °C, read-out: MIC): 8 µg/mL (≈ 22.9 µM)
- MIC (MRSA T144; [12]): 32 µg/mL (≈ 91.6 µM)
- MIC (E. coli 1F28 (tet(X4)); [13]): > 128 µg/mL
- MIC (E. coli B3-1 (tet(X4)); [14]): > 128 µg/mL
- MIC (E. faecalis A4 (VRE); Enterococcus faecalis, E. faecalis A4 (VRE), broth micro-dilution CLSI 2018, MHB, 18 h, 37 °C, read-out: MIC): 32 µg/mL (≈ 91.6 µM)

Compound: KWKWKW-NH2 [KW-6]
- MIC [1, 6]: >64 µg/mL

Compound: WKWKWK-NH2 [WK-6]
- MIC [1, 6]: >64 µg/mL

Compound: WRLRWRLRWRLR-NH2 [WR-12]
- MIC [1, 6]: 2 µg/mL

Compound: WRLWRLWRL-NH2 [WL-9]
- MIC [1, 6]: 8 µg/mL

Compound: CN(C)c1cc(NC(=O)CNC(C)(C)C)c(O)c2c1C[C@H]1C[C@H]3[C@H](N(C)C)C(O)=C(C(N)=O)C(=O)[C@@]3(O)C(O)=C1C2=O [TIG, tigecycline, reference compound]
- MIC (E. coli ATCC 25922; [8]): 0.125 µg/mL (≈ 0.213 µM)
- MIC [1, 11]: 2 µg/mL
- MIC ([3]; Staphylococcus aureus): 1 µg/mL (≈ 1.71 µM)
- MIC (S. aureus ATCC 29213; [9]): 0.125 µg/mL (≈ 0.213 µM)
- MIC ([4]; Salmonella enterica, 18 h): 0.125 µg/mL (≈ 0.213 µM)
- MIC (MRSA T144; [12]): 2 µg/mL (≈ 3.41 µM)
- MIC (E. coli 1F28 (tet(X4)); [13]): 32 µg/mL (≈ 54.6 µM)
- MIC (E. coli B3-1 (tet(X4)); [14]): 32 µg/mL (≈ 54.6 µM)
- MIC (E. faecalis A4 (VRE); [10]): 0.125 µg/mL (≈ 0.213 µM)
- MIC (E. coli 1A34; Escherichia coli, E. coli 1A34, anal swab, tigecycline-resistant clinical isolate, broth micro-dilution, read-out: MIC): 16 µg/mL (≈ 27.3 µM)
- MIC (E. coli 1C1; Escherichia coli, E. coli 1C1, dust, tigecycline-resistant clinical isolate, broth micro-dilution, read-out: MIC): 32 µg/mL (≈ 54.6 µM)
- MIC (E. coli 1F16; Escherichia coli, E. coli 1F16, feces, tigecycline-resistant clinical isolate, broth micro-dilution, read-out: MIC): > 64 µg/mL
- MIC (E. coli 1F31; Escherichia coli, E. coli 1F31, tigecycline-resistant clinical isolate, broth micro-dilution, read-out: MIC): 32 µg/mL (≈ 54.6 µM)
- MIC (E. coli 1N28; Escherichia coli, E. coli 1N28, nasal swab, tigecycline-resistant clinical isolate, broth micro-dilution, read-out: MIC): 32 µg/mL (≈ 54.6 µM)
- MIC (E. coli 1N31; Escherichia coli, E. coli 1N31, tigecycline-resistant clinical isolate, broth micro-dilution, read-out: MIC): 128 µg/mL (≈ 219 µM)
- MIC (E. coli 2A19; Escherichia coli, E. coli 2A19, tigecycline-resistant clinical isolate, broth micro-dilution, read-out: MIC): 8 µg/mL (≈ 13.7 µM)
- MIC (E. coli 2W25; Escherichia coli, E. coli 2W25, water, tigecycline-resistant clinical isolate, broth micro-dilution, read-out: MIC): 64 µg/mL (≈ 109 µM)
- MIC (Shigella 1F25; read-out: MIC): 8 µg/mL (≈ 13.7 µM)
